Reference: EP0465913B1, “Diaminotrifluoromethylpyrimidine derivatives, process for their production and phospholipase A2 inhibitor containing them” (ISHIHARA SANGYO KAISHA, LTD., priority 1990, dated 1992)
Where a name gives a salt, the structure may show the parent alone.

Experiments:
[1] = biological target: T1, Porcine pancreatic phospholipase A2 (Sus scrofa, UniProt P00592); experiment: Phospholipase A2 inhibitory activity, method B (L-α-dipalmitoylphosphatidylcholine substrate); assay type: biochemical; conditions: 37°C for 30 minutes; for inhibition at 1000 ppm: 1,000 ppm, read-out: % inhibition of PLA2 (1,000 ppm)
T1 construct: purchased Boehringer Mannheim·Yamanouchi K.K. 161454·122416
T1 sequence (P00592 23-146): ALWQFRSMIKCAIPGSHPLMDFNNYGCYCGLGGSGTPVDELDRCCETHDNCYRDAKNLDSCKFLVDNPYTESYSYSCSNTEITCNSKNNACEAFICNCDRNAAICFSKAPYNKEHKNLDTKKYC
Method in brief: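 Substrate: L-α-dipalmitoylphosphatidylcholine/sodium cholate mixed micelles in 250 mM NaCl, 100 mM Tris-HCl pH 8.0. Enzyme (10 µg/ml stock) incubated with compound in buffer containing CaCl2 and BSA, 30 min at 37 °C. Released free fatty acid measured by ACS-ACOD at 540 nm; % inhibition derived from apparent enzyme concentration read off a standard curve.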

carrageenin edema = experiment: Inhibitory activity on carrageenin edema; assay type: in vivo, Wistar male rats; conditions: rat, paw swelling volume three hours after carrageenin; for Inhibition rate (%): dose 50 mg/kg orally; for inhibition in vivo at 100 mg/kg: po, 3 h, dose 100 mg/kg orally, read-out: Inhibition rate (%)
Method in brief: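 Male Wistar rats (about 100 g, 5 per group) dosed orally at 200, 100, 50 or 25 mg/kg as 2% Tween 80 suspension or aqueous salt solution, 1 h before subplantar injection of 0.1 ml 1% λ-carrageenin. Paw swelling measured at 3 h; % inhibition versus control group mean swelling.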

[2] = tested on: increased vascular permeability induced by acetic acid; experiment: Inhibitory activity on increased vascular permeability induced by acetic acid (Mouse Whittle method, method C); assay type: in vivo, ddy male mice; conditions: amount of leaked dye
Method in brief: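 ddy male mice (4-5 per group) dosed orally with compound in 2% Tween 80 suspension or aqueous salt solution. Dye measured at 600 nm; inhibition % calculated versus vehicle control leakage.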

[3] = tested on: increased vascular permeability induced by acetic acid; experiment: Inhibitory activity on increased vascular permeability induced by acetic acid (Rat Whittle method, method D); assay type: in vivo, SD (Crj: CD) male rats; conditions: amount of leaked dye
Method: Using SD (Crj: CD) male rats, each test group consisted of from 3 to 5 rats. A test compound was mixed with Tween 80 [polyoxyethylenesorbitan monooleate (manufactured by Nacalai Tesque K.K.)], and distilled water was added thereto to obtain a 2% Tween 80 suspension, or it was dissolved in the form of a salt in water to obtain an aqueous solution. A test compound was orally administered, and one hour later, 0.7% acetic acid was intraperitonially injected to each rat in an amount of 0.05 ml/10 g, and at the same time, 2% brilliant blue was intravenously injected into the tail vein in an amount of 0.05 ml/20 g. Thirty minutes after the injection of brilliant blue, the cervical vertebrae were dislocated under anesthesia by chloroform, and the abdorminal cavity was washed with 10 ml of a physiological saline. The washing solution was subjected to centrifugal separation at 3,000 rpm for 10 minutes, and the amount of the dye in the supernatant was measured at 600 nm absorbance by Microplate ELISA Reader (Model 2550EIA Reader, manufactured by Bio-Rad Laboratories). The inhibition rate of the amount of leaked dye in the group to which a test compound was administered relative to the control group was obtained from the following formula, and the results are shown in Table 9. Inhibition rate (%) = (l -(C)/(D)) x 100 [formula] • C: Amount of leaked dye in the group to which a test compound was administered. • D: Amount of leaked dye in the control group.

Row | Structure (SMILES) | inhibition at 1000 ppm [1] [%] | Inhibition rate (%) (carrageenin edema) | Inhibition rate (%) ([2]; dose 20 mg/kg orally) | Inhibition rate (%) ([2]; dose 10 mg/kg orally) | other results
1 | CS(=O)(=O)Nc1ncc(C(F)(F)F)cc1NC(=O)c1ccccc1 [compound 43] | 49 | 31 | 48 |  | 
2 | CS(=O)(=O)Nc1ncc(C(F)(F)F)cc1NC(=O)c1cccc(Cl)c1 [compound 79] | 65 | 20 | 67 |  | Inhibition rate (%) ([3]; dose 50 mg/kg orally): 74%
3 | CS(=O)(=O)Nc1ncc(C(F)(F)F)cc1NC(=O)c1ccc2c(c1)CCC2 [compound 87] | 88 | 21 |  | 28 | Inhibition rate (%) ([3]; dose 12.5 mg/kg orally): 47%
4 | Cc1cccc(C(=O)Nc2cc(C(F)(F)F)cnc2NS(C)(=O)=O)c1 [compound 78] | 51 | 26 |  | 32 | Inhibition rate (%) ([3]; dose 25 mg/kg orally): 40%
5 | CS(=O)(=O)Nc1ncc(C(F)(F)F)cc1NC(=O)c1cc2ccccc2s1 [compound 86] | 93 | 27 | 42 |  | Inhibition rate (%) ([3]; dose 50 mg/kg orally): 37%
6 | CS(=O)(=O)Nc1ncc(C(F)(F)F)cc1NC(=O)C1CCCC1 [compound 45] | 41 | 23 | 29 |  | 
7 | CCS(=O)(=O)Nc1ncc(C(F)(F)F)cc1NC(=O)C1CCCCC1 [Compound No. 47, N-(2-ethylsulfonylamino-5-trifluoromethyl-3-pyridyl)cyclohexanecarboxamide] | 90 |  |  | 46 | Inhibition rate (%) (carrageenin edema; 50 mg/kg): 41%
8 | C/C=C/C(=O)Nc1cc(C(F)(F)F)cnc1NS(=O)(=O)CC [compound 93, N-(2-ethylsulfonylamino-5-trifluoromethyl-3-pyridyl)crotonamide] | 48 | 22 |  | 40 | Inhibition rate (%) ([3]; dose 25 mg/kg orally): 54%
9 | CS(=O)(=O)Nc1ncc(C(F)(F)F)cc1NC(=O)C(F)(F)C(F)(F)F [compound 13] | 51 |  |  |  | inhibition in vivo at 100 mg/kg (carrageenin edema): 21%; Inhibition rate (%) ([2]; dose 100 mg/kg orally): 57%
10 | CCS(=O)(=O)Nc1ncc(C(F)(F)F)cc1NC(=O)C1CCCCC1 [Compound No. 251, sodium salt of N-(2-ethylsulfonylamino-5-trifluoromethyl-3-pyridyl)cyclohexanecarboxamide] |  |  |  |  | % inhibition of PLA2 (1,000 ppm) [1]: 85%; Inhibition rate (%) ([3]; dose 12.5 mg/kg orally): 46%; Inhibition rate (%) (carrageenin edema; 50 mg/kg): 30%; Inhibition rate (%) ([2]; dose 20 mg/kg orally, 20 mg/kg): 43%
11 | CCS(=O)(=O)Nc1ncc(C(F)(F)F)cc1NC(=O)C1CCCC1 [compound 94] | 63 | 23 | 53 |  | Inhibition rate (%) ([3]; dose 25 mg/kg orally): 45%
12 | CS(=O)(=O)Nc1ncc(C(F)(F)F)cc1NC(=O)c1ccc(F)cc1 [Compound No. 10, N-(2-methylsulfonylamino-5-trifluoromethyl-3-pyridyl)-4-fluorobenzamide] | 51 |  |  | 42 | inhibition in vivo at 100 mg/kg (carrageenin edema): 28%
